The values that follow are results of earlier work, collected in patent US11865215B2, “Tablet compositions comprising abiraterone acetate” (SYNTHON B.V., priority 2018, dated 2024).

Test in series [1]: not given
This is another data set of the same source.

In the case of `C[C@]12CC[C@H](O)CC1=CC[C@@H]1[C@@H]2CC[C@]2(C)C(c3cccnc3)=CC[C@@H]12` [Abiraterone], the solubility in water entry is “less than 0.1 mg/ml”. In addition, the “time to reach maximum plasma concentration of abiraterone” value in series [1] (oral administration in the fasting state) is “approx. 2 hours”.

As to `CC(=O)O[C@H]1CC[C@@]2(C)C(=CC[C@@H]3[C@@H]2CC[C@]2(C)C(c4cccnc4)=CC[C@@H]32)C1` [Abiraterone acetate, 3β-acetoxy-17-(3-pyridyl)androsta-5,16-diene], the “BCS System class” value (compound of low solubility and low permeability) is given as “Class IV”. In series [1] (with food), the “effect of taking the tablet with food on absorption” value was “significantly and undesirably increases the absorption”.
